Results from US8680111B2 (Pfizer Inc., priority 2012, dated 2014).

Experiments:
[1] = molecular target: T1, human recombinant wild-type ALK kinase domain (amino acids 1093-1411) (Homo sapiens, UniProt Q9UM73); experiment: Wild-type ALK enzyme assay (microfluidic mobility shift); assay type: biochemical; conditions: ATP 60 μM, competitive inhibition fit, read-out: WT ALK enzyme assay (Ki)
T1 construct: ALK kinase domain (amino acids 1093-1411); made in house
Experimental: The reactions were incubated for 1 h at room temperature, stopped by the addition of 0.1 M EDTA, pH 8, and the extent of reactions (˜15-20% conversion with no inhibitor) was determined after electrophoretic separation of the fluorescently labeled peptide substrate and phosphorylated product on an LabChip EZ Reader II (Caliper Life Sciences, Hopkinton, Mass.).

[2] = molecular target: T2, human recombinant L1196M ALK kinase domain (amino acids 1093-1411) (Homo sapiens, UniProt Q9UM73, L1196M); experiment: L1196M mutant ALK enzyme assay (microfluidic mobility shift); assay type: biochemical; conditions: ATP 60 μM, 0.5 nM enzyme, competitive inhibition fit; read-out: L1196M ALK enzyme assay (Ki)
T2 construct: ALK kinase domain (amino acids 1093-1411); made in house

Molecule | Ki [1] | Ki [2]
7-amino-12-fluoro-3-methoxy-1,16,17-trimethyl-16,17-dihydro-1H-8,4-(azeno)pyrazolo[4,3-h][2,5,11]benzoxadiazacyclotetradecin-15(10H)-one [Example 128] | 138 nM | 386 nM
CCN1Cc2c(c(C)nn2C)-c2cnc(N)c(c2)OC(C)c2cc(F)ccc2C1=O (single isomer, unassigned) [Example 10, 7-amino-16-ethyl-12-fluoro-1,3,10-trimethyl-16,17-dihydro-1H-8,4-(metheno)pyrazolo[4,3-h][2,5,11]benzoxadiazacyclotetradecin-15(10H)-one] | 13 nM | 34 nM
CC1Oc2cc(cnc2N)-c2c(nn(C)c2C2CC2)CN(C)C(=O)c2ccc(F)cc21 (single isomer, unassigned) [Example 15, 7-amino-3-cyclopropyl-12-fluoro-2,10,16-trimethyl-16,17-dihydro-2H-8,4-(metheno)pyrazolo[4,3-h][2,5,11]benzoxadiazacyclotetradecin-15(10H)-one] | < 0.2 nM | 2.5 nM
CC1Oc2cc(cnc2N)-c2c(nn(C)c2C2CC2)CN(C)C(=O)c2ccc(F)cc21 (single isomer, unassigned) [Example 16, 7-amino-3-cyclopropyl-12-fluoro-2,10,16-trimethyl-16,17-dihydro-2H-8,4-(metheno)pyrazolo[4,3-h][2,5,11]benzoxadiazacyclotetradecin-15(10H)-one] | 213 nM | > 2270 nM
CC1Oc2nc(cnc2N)-c2c(nn(C)c2C#N)CN(C)C(=O)c2ccc(F)cc21 (single isomer, unassigned) [Example 33, 7-amino-12-fluoro-2,10,16-trimethyl-15-oxo-10,15,16,17-tetrahydro-2H-8,4-(azeno)pyrazolo[4,3-h][2,5,11]benzoxadiazacyclotetradecine-3-carbonitrile] | 1010 nM | > 2680 nM
CC1Oc2cc(cnc2N)-c2c(nn(C)c2C#N)CN(C)C(=O)c2c(F)cccc21 (single isomer, unassigned) [Example 53, 7-amino-14-fluoro-2,10,16-trimethyl-15-oxo-10,15,16,17-tetrahydro-2H-8,4-(metheno)pyrazolo[4,3-h][2,5,11]benzoxadiazacyclotetradecine-3-carbonitrile] | 25.8 nM | 164 nM
CC1Oc2cc(cnc2N)-c2c(C(C)(C)C)nn(C)c2CN(C)C(=O)c2ncccc21 (single isomer, unassigned) [Example 68, 7-amino-3-tert-butyl-1,10,16-trimethyl-16,17-dihydro-1H-8,4-(metheno)pyrazolo[4,3-g]pyrido[2,3-l][1,4,10]oxadiazacyclotetradecin-15(10H)-one] | 207 nM | > 1500 nM
CC1Oc2cc(cnc2N)-c2c(C(C)(C)C)nn(C)c2CN(C)C(=O)c2ncccc21 (single isomer, unassigned) [Example 69, 7-amino-3-tert-butyl-1,10,16-trimethyl-16,17-dihydro-1H-8,4-(metheno)pyrazolo[4,3-g]pyrido[2,3-l][1,4,10]oxadiazacyclotetradecin-15(10H)-one] | > 3000 nM | > 3000 nM
CC1c2nn(C)c(C#N)c2-c2cnc(N)c(n2)OCc2cc(F)ccc2C(=O)N1C (single isomer, unassigned) [Example 80, 7-amino-12-fluoro-2,16,17-trimethyl-15-oxo-10,15,16,17-tetrahydro-2H-8,4-(azeno)pyrazolo[4,3-h][2,5,11]benzoxadiazacyclotetradecine-3-carbonitrile] | > 3000 nM | > 3000 nM
CC1Oc2nc(cnc2N)-c2c(nn(C)c2C#N)COCc2ccc(F)cc21 (single isomer, unassigned) [Example 106, 7-amino-12-fluoro-2,10-dimethyl-2,10,15,17-tetrahydro-8,4-(azeno)pyrazolo[4,3-h][2,11,5]benzodioxazacyclotetradecine-3-carbonitrile] | > 3000 nM | > 3000 nM
CC1Oc2cc(cnc2N)-c2c(cnn2C)CCCCCOc2ccc(F)cc21 (single isomer, unassigned) [Example 131, 12-fluoro-1,14-dimethyl-1,4,5,6,7,8-hexahydro-14H-16,20-(metheno)-pyrazolo-[4,3-g][1,14,11]benzodioxazacycloheptadecin-17-amine] | 78.3 nM | 794 nM
Cn1ncc2c1-c1cnc(N)c(c1)OCc1cc(F)ccc1OCCCCC2 [Example 42, 12-fluoro-1-methyl-1,4,5,6,7,8-hexahydro-14H-16,20-(metheno) pyrazolo[4,3-g][1,14,11]benzodioxazacycloheptadecin-17-amine] | 500 nM | 2.89 nM
Cc1nn(S(=O)(=O)N(C)C)c2c1-c1cnc(N)c(c1)OCc1cc(F)ccc1OCCC2 [Example 44, 7-amino-12-fluoro-N,N,3-trimethyl-17,18-dihydro-10H-8,4-(metheno)-pyrazolo[3,4-e][1,12,9]benzodioxazacyclopentadecine-1(16H)-sulfonamide] | 12 nM | 70 nM
C[C@H]1Oc2cc(cnc2N)-c2c(cnc3cccnc23)CN(C)C(=O)c2ccc(F)cc21 [Example 103, (11R)-8-amino-13-fluoro-11,17-dimethyl-17,18-dihydro-9,5-(metheno)-[1,5]naphthyridino[4,3-h][2,5,11]benzoxadiazacyclotetradecin-16(11H)-one] | 9.1 nM | 131 nM
CC1Oc2nc(cnc2N)-c2c(nn(C)c2C#N)COCc2ccc(F)cc21 (stereo not shown) [Example 104, 7-amino-12-fluoro-2,10-dimethyl-2,10,15,17-tetrahydro-8,4-(azeno)pyrazolo[4,3-h][2,11,5]benzodioxazacyclotetradecine-3-carbonitrile] | 8.4 nM | 57.5 nM

Next, values leading:

Ki [1] | Ki [2] | Molecule
540 nM | 1070 nM | 7-amino-12-fluoro-3-methoxy-1,16,17-trimethyl-16,17-dihydro-1H-8,4-(azeno)pyrazolo[4,3-h][2,5,11]benzoxadiazacyclotetradecin-15(10H)-one [Example 126]
34 nM | 450 nM | COc1c2c(nn1C)CN(C)C(=O)c1ccc(F)cc1C(C)Oc1cc-2cnc1N (single isomer, unassigned) [Example 20, 7-amino-12-fluoro-3-methoxy-2,10,16-trimethyl-16,17-dihydro-2H-8,4-(metheno)pyrazolo[4,3-h][2,5,11]benzoxadiazacyclotetradecin-15(10H)-one]
4.6 nM | 14 nM | CCC1Oc2cc(cnc2N)-c2c(OC)nn(C)c2CN(C)C(=O)c2ccc(F)cc21 (single isomer, unassigned) [Example 24, 7-amino-10-ethyl-12-fluoro-3-methoxy-1,16-dimethyl-16,17-dihydro-1H-8,4-(metheno)pyrazolo[4,3-h][2,5,11]benzoxadiazacyclotetradecin-15(10H)-one]
19.3 nM | 122 nM | COc1nn(C)c2c1-c1cnc(N)c(c1)OC(C)c1cccnc1C(=O)N(C)C2 (single isomer, unassigned) [Example 66, 7-amino-3-methoxy-1,10,16-trimethyl-16,17-dihydro-1H-8,4-(metheno)-pyrazolo[4,3-g]pyrido[2,3-l][1,4,10]oxadiazacyclotetradecin-15(10H)-one]
29.3 nM | 90.2 nM | CN1Cc2nn(C)c(C#N)c2-c2cnc(N)c(c2)OC(CF)c2cc(F)ccc2C1=O (single isomer, unassigned) [Example 84, 7-amino-12-fluoro-10-(fluoromethyl)-2,16-dimethyl-15-oxo-10,15,16,17-tetrahydro-2H-8,4-(metheno)pyrazolo[4,3-h][2,5,11]benzoxadiazacyclotetradecine-3-carbonitrile]
270 nM | 51 nM | COc1nn(C)c2c1-c1cnc(N)c(c1)OC(CF)c1cc(F)ccc1C(=O)N(C)C2 (single isomer, unassigned) [Example 87, 7-amino-12-fluoro-10-(fluoromethyl)-3-methoxy-1,16-dimethyl-16,17-dihydro-1H-8,4-(metheno)pyrazolo[4,3-h][2,5,11]benzoxadiazacyclotetradecin-15(10H)-one]
> 3000 nM | > 3000 nM | CC1Oc2cc(cnc2N)-c2c(cnn2C)CCCCCOc2ccc(F)cc21 (single isomer, unassigned) [Example 130, 12-fluoro-1,14-dimethyl-1,4,5,6,7,8-hexahydro-14H-16,20-(metheno)-pyrazolo-[4,3-g][1,14,11]benzodioxazacycloheptadecin-17-amine]
411 nM | > 1500 nM | CC1Oc2cc(cnc2N)-c2c(C(C)(C)C)nn(C)c2CN(C)C(=O)c2ncccc21 (stereo not shown) [Example 67, 7-amino-3-tert-butyl-1,10,16-trimethyl-16,17-dihydro-1H-8,4-(metheno)pyrazolo[4,3-g]pyrido[2,3-l][1,4,10]oxadiazacyclotetradecin-15(10H)-one]
930 nM | 698 nM | CN1Cc2nn(C)c(C#N)c2-c2cnc(N)c(n2)O[C@@H](CF)c2cc(F)ccc2C1=O [Example 94, (10R)-7-amino-12-fluoro-10-(fluoromethyl)-2,16-dimethyl-15-oxo-10,15,16,17-tetrahydro-2H-8,4-(azeno)pyrazolo[4,3-h][2,5,11]benzoxadiazacyclotetradecine-3-carbonitrile]
88.5 nM | 179 nM | Cn1nc2c(c1C#N)-c1cnc(N)c(n1)OCc1cc(F)ccc1COC2 [Example 107, 7-amino-12-fluoro-2-methyl-2,10,15,17-tetrahydro-8,4-(azeno)pyrazolo[4,3-h][2,11,5]benzodioxazacyclotetradecine-3-carbonitrile]
353 nM | > 1500 nM | CC1Oc2cc(cnc2N)-c2c(cnn2C)CCCCCOc2ccc(F)cc21 (stereo not shown) [Example 129, 12-fluoro-1,14-dimethyl-1,4,5,6,7,8-hexahydro-14H-16,20-(metheno)-pyrazolo-[4,3-g][1,14,11]benzodioxazacycloheptadecin-17-amine]
